According to patent US20210392892A1, “COMPOSITIONS COMPRISING PYRIDINE CARBOXYLATE HERBICIDES AND ACETYL COA CARBOXYLASE (ACCASE) INHIBITOR HERBICIDES” (Corteva Agriscience LLC, priority 2018, published 2021):
Values joined by “and” are separate entries in the source; they are usually repeats but may differ in a detail not shown here. Identical values can stand only once.

Columns and labels:
Test in all cases: Greenhouse postemergence herbicidal effect (visual injury)
Format in all cases: in vivo
[1] = test system: ABUTH, Abutilon theophrasti (velvetleaf)
Text: (§1) Seeds of the desired test plant species were planted in a 90:10% v/v (volume/volume) mixture of PRO-MIX® BX (Premier Tech Horticulture, Quakertown, Pa., USA) and PROFILE® GREENS GRADE™ (Profile Products LLC, Buffalo Grove, Ill., USA) planting mixture, which typically has a pH of 5.2 to 6.2 and an organic matter content of at least 50 percent, in plastic pots with a surface area of 103.2 square centimeters (cm^2). In some aspects, to help ensure good germination and healthy plants, a fungicide treatment and/or other chemical or physical treatment was applied. The plants were grown for 7-36 days (d) in a greenhouse with an approximate 14-hour (h) photoperiod which was maintained at about 23° C. during the day and 22° C. during the night. Nutrients and water were added on a regular basis and supplemental lighting was provided with overhead metal halide 1000-Watt lamps as necessary. The plants were employed for testing when they reached the second or third true leaf stage.
(§2) Emulsifiable concentrates of each of each pyridine carboxylate herbicide (Compound A or Compound B) were prepared at 100 grams acid equivalent per liter (g ae/L). The emulsifiable concentrates also included a safener, cloquintocet-mexyl, at 120 grams active ingredient per liter (g ai/L), unless otherwise noted below. An aliquot of each emulsifiable concentrate was placed in a 25 mL glass vial and diluted with an aqueous mixture of 1.25% (v/v) ACTIROB® B esterified rapeseed oil (Bayer Crop Science, Research Triangle Park, N.C., USA) or MSO® Concentrate with LECI-TECH® methylated soybean oil (Loveland Products, Loveland, Colo., USA) to obtain concentrated stock solutions at the highest application rate for each herbicide, based upon a 12 milliliter (mL) application volume at a rate of 187 liters per hectare (L/ha). The concentrated stock solutions were further diluted with an aqueous mixture of 1.25% v/v ACTIROB® B or MSO® Concentrate with LECI-TECH® to obtain stock solutions at reduced application rates for each herbicide. Spray solutions of the herbicide combinations (Compound A or Compound B plus ACCase inhibitor herbicide) were prepared by adding weighed amounts or aliquots of the ACCase inhibitor herbicide to the stock solutions of Compound A or Compound B to form 12-mL spray solutions in two-way combinations.
(§3) The spray solutions were applied to the plant material with an overhead Mandel track sprayer equipped with 8002E nozzles calibrated to deliver 187 L/ha over an application area of 0.503 square meters (m^2) at a spray height of 18 inches (43 centimeters (cm)) above the average plant canopy. Control plants were sprayed in the same manner with the solvent blank. All pyridine carboxylate herbicide (component a) application rates are given as “g ae/ha” and all ACCase inhibitor herbicide (component b) application rates are given as “g ai/ha.”
(§4) The treated plants and control plants were placed in a greenhouse as described above and watered by sub-irrigation to prevent wash-off of the test compounds. After 20-22 d, the condition of the test plants as compared with that of the control plants was determined visually and scored on a scale of 0 to 100 percent where 0 corresponds to no injury and 100 corresponds to complete kill.

[2] = test system: BRAPP, Brachiaria platyphylla (broadleaf signalgrass); conditions: with cloquintocet-mexyl
Text: as §1, §2, §3, §4

[3] = test system: BRSNN, Brassica napus (spring rape); conditions: with cloquintocet-mexyl
Text: as §1, §2, §3, §4

[4] = test system: CIRAR, Cirsium arvense (Canadian thistle)
Text: as §1, §2, §3, §4

[5] = test system: CYPDI, Cyperus difformis (small-flower flatsedge); conditions: with cloquintocet-mexyl
Text: as §1, §2, §3, §4

[6] = test system: GLXMA, Glycine max (soybean)
Text: as §1, §2, §3, §4

[7] = test system: HELAN, Helianthus annuus (common sunflower)
Text: as §1, §2, §3, §4

[8] = test system: KCHSC, Kochia scoparia (kochia)
Text: as §1, §2, §3, §4

[9] = test system: LEFCH, Leptochloa chinensis (Chinese sprangletop)
Text: as §1, §2, §3, §4

[10] = test system: ORYSA, Oryza sativa (common rice); conditions: with cloquintocet-mexyl
Text: as §1, §2, §3, §4

[11] = test system: POLCO, Polygonum convolvulus (wild buckwheat)
Text: as §1, §2, §3, §4

[12] = test system: SETFA, Setaria faberi (giant foxtail)
Text: as §1, §2, §3, §4

[13] = test system: STEME, Stellaria media (chickweed)
Text: as §1, §2, §3, §4

[14] = test system: VIOTR, Viola tricolor (wild pansy)
Text: as §1, §2, §3, §4

[15] = test system: ZEAMX, Zea mays (maize); conditions: with cloquintocet-mexyl
Text: as §1, §2, §3, §4

[16] = 7.5 g ae/ha, without cloquintocet-mexyl
[17] = 10 g ae/ha, without cloquintocet-mexyl
[18] = 7.5 g ae/ha, with cloquintocet-mexyl
[19] = 10 g ae/ha, with cloquintocet-mexyl

## N#CCOC(=O)c1nc(-c2ccc3cc[nH]c3c2F)c(F)c(N)c1Cl [Compound A, cyanomethyl 4-amino-3-chloro-5-fluoro-6-(7-fluoro-1H-indol-6-yl)pyridine-2-carboxylate]
[1]; [16]
  % visual injury, Obs: 70%
[1]; [17]
  % visual injury, Obs: 75%
[1]; ABUTH, Compound A 7.5 g/ha, Fluazifop 0 g/ha
  % visual injury, Obs: 70%
[1]; ABUTH, Compound A 10 g/ha, Fluazifop 0 g/ha
  % visual injury, Obs: 75%
[2]; 7.5 g ae/ha
  % visual injury, Obs: 43%
[2]; 10 g ae/ha
  % visual injury, Obs: 68%
[3]; 7.5 g ae/ha
  % visual injury, Obs: 23%
[3]; 10 g ae/ha
  % visual injury, Obs: 45%
[4]; [16]
  % visual injury, Obs: 40%
[4]; [17]
  % visual injury, Obs: 28%
[4]; CIRAR, Compound A 7.5 g/ha, Fluazifop 0 g/ha
  % visual injury, Obs: 40%
[4]; CIRAR, Compound A 10 g/ha, Fluazifop 0 g/ha
  % visual injury, Obs: 28%
[5]; 7.5 g ae/ha
  % visual injury, Obs: 60%
[5]; 10 g ae/ha
  % visual injury, Obs: 72%
[6]; [16]
  % visual injury, Obs: 85%
[6]; [17]
  % visual injury, Obs: 85%
[6]; GLXMA, Compound A 7.5 g/ha, Fluazifop 0 g/ha
  % visual injury, Obs: 85%
[6]; GLXMA, Compound A 10 g/ha, Fluazifop 0 g/ha
  % visual injury, Obs: 85%
[7]; [16]
  % visual injury, Obs: 95%
[7]; [17]
  % visual injury, Obs: 100%
[7]; HELAN, Compound A 7.5 g/ha, Fluazifop 0 g/ha
  % visual injury, Obs: 95%
[7]; HELAN, Compound A 10 g/ha, Fluazifop 0 g/ha
  % visual injury, Obs: 100%
[8]; [18]
  % visual injury, Obs: 63%
[8]; [16]
  % visual injury, Obs: 73%
[8]; [19]
  % visual injury, Obs: 70%
[8]; [17]
  % visual injury, Obs: 88%
[8]; KCHSC, Compound A 7.5 g/ha, Fluazifop 0 g/ha
  % visual injury, Obs: 73%
[8]; KCHSC, Compound A 10 g/ha, Fluazifop 0 g/ha
  % visual injury, Obs: 88%
[9]; [16]
  % visual injury, Obs: 0%
[9]; [17]
  % visual injury, Obs: 0% and 5%
[9]; LEFCH, Compound A 7.5 g/ha, Fluazifop 0 g/ha
  % visual injury, Obs: 0%
[9]; LEFCH, Compound A 7.5 g/ha, Haloxyfop-R-methyl 0 g/ha
  % visual injury, Obs: 0%
[9]; LEFCH, Compound A 7.5 g/ha, Quizalofop-P-ethyl 0 g/ha
  % visual injury, Obs: 0%
[9]; LEFCH, Compound A 10 g/ha, Fluazifop 0 g/ha
  % visual injury, Obs: 0%
[9]; LEFCH, Compound A 10 g/ha, Haloxyfop-R-methyl 0 g/ha
  % visual injury, Obs: 5%
[9]; LEFCH, Compound A 10 g/ha, Quizalofop-P-ethyl 0 g/ha
  % visual injury, Obs: 5%
[10]; 7.5 g ae/ha
  % visual injury, Obs: 0%
[10]; 10 g ae/ha
  % visual injury, Obs: 0%
[11]; [16]
  % visual injury, Obs: 80%
[11]; [17]
  % visual injury, Obs: 78%
[11]; POLCO, Compound A 7.5 g/ha, Fluazifop 0 g/ha
  % visual injury, Obs: 80%
[11]; POLCO, Compound A 10 g/ha, Fluazifop 0 g/ha
  % visual injury, Obs: 78%
[12]; [18]
  % visual injury, Obs: 0%
[12]; [19]
  % visual injury, Obs: 0%
[12]; SETFA, Compound A 7.5 g/ha, Fluazifop 0 g/ha
  % visual injury, Obs: 0%
[12]; SETFA, Compound A 7.5 g/ha, Haloxyfop-R-methyl 0 g/ha
  % visual injury, Obs: 63%
[12]; SETFA, Compound A 7.5 g/ha, Quizalofop-P-ethyl 0 g/ha
  % visual injury, Obs: 63%
[12]; SETFA, Compound A 10 g/ha, Fluazifop 0 g/ha
  % visual injury, Obs: 0%
[12]; SETFA, Compound A 10 g/ha, Haloxyfop-R-methyl 0 g/ha
  % visual injury, Obs: 60%
[12]; SETFA, Compound A 10 g/ha, Quizalofop-P-ethyl 0 g/ha
  % visual injury, Obs: 60%
[13]; [18]
  % visual injury, Obs: 90%
[13]; [16]
  % visual injury, Obs: 73%
[13]; [19]
  % visual injury, Obs: 85%
[13]; [17]
  % visual injury, Obs: 88%
[13]; STEME, Compound A 7.5 g/ha, Fluazifop 0 g/ha
  % visual injury, Obs: 73%
[13]; STEME, Compound A 10 g/ha, Fluazifop 0 g/ha
  % visual injury, Obs: 88%
[14]; [16]
  % visual injury, Obs: 8%
[14]; [17]
  % visual injury, Obs: 15%
[14]; VIOTR, Compound A 7.5 g/ha, Fluazifop 0 g/ha
  % visual injury, Obs: 8%
[14]; VIOTR, Compound A 10 g/ha, Fluazifop 0 g/ha
  % visual injury, Obs: 15%
[15]; 7.5 g ae/ha
  % visual injury, Obs: 0%
[15]; 10 g ae/ha
  % visual injury, Obs: 0%
